The source of these data is article PMC6694155, “PTPσ inhibitors promote hematopoietic stem cell regeneration” (Nature Communications, 2019).

“And” between values parts separate entries of the source, which are not always exact repeats. Equal values may be shown once. “Also recorded” adds a separate entry of the source.

The target of one test is T1, PTPσ (Mus musculus, UniProt B0V2N1).
T1 sequence (B0V2N1 1326-1907): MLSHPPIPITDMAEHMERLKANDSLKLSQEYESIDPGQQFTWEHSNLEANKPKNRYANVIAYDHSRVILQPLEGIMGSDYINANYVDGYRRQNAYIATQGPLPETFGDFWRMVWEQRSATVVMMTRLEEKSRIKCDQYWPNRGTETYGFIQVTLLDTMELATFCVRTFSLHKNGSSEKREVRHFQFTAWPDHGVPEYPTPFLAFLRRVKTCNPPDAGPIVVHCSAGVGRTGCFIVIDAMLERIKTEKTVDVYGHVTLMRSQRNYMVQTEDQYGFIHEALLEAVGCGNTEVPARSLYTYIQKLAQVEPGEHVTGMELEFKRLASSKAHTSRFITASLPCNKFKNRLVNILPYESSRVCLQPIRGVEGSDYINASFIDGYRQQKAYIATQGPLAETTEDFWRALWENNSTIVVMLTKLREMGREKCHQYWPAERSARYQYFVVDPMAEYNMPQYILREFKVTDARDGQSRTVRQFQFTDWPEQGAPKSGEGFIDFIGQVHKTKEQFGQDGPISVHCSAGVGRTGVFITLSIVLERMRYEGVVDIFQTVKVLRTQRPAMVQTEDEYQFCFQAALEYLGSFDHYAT
The test can be described thus: PTPσ enzymatic assay (modified Malachite Green / Tyrosine Phosphatase Assay Kit). Format: biochemical. As to conditions: for PTPσ inhibitory activity (in words): direct PTPσ enzymatic assay; for Supplementary Figure 5b: PTPσ enzymatic assay signal: replicates. As for the experimental part: The two intracellular catalytic domains (D1 and D2) of Ptprs were cloned into a pET28a vector, overexpressed in Escherichia coli BL21 and purified. Enzymatic activity of PTPσ was assayed using a modified version of the Malachite Green Assay[66] and the Tyrosine Phosphatase Assay Kit (Promega Corporation). Unless stated otherwise, standard assays were carried out using 50 nM PTPσ protein in 1× Buffer (10 mM Tris, 5 mM MgCl2, 10 mM NaCl, 0.02% Tween) and Tyr Phosphopeptide as substrate (200 μM for Fig. 1b, c, 50–1200 μM in Fig. 1c). Purified catalytic domain 1 and domain 2 of PTPσ were pre-incubated with test compounds 3071, 5205, 5075, or control for 15 min in a 96-well plate before the addition of Tyr Phosphopeptide (DADE(pY)LIPQQG). For IC50 determination, rates normalized relative to uninhibited controls (dimethyl sulfoxide (DMSO)) were plotted against compound concentration and fitted using a four-parameter nonlinear regression curve fit ((y = [(A − D) (1 + {xC − 1}B) − 1] + D) (Prism 6.0, Graphpad Software). For mechanism studies and determination of the enyzme’s Km and Vmax, data were analyzed using a nonlinear regression fit according to the classical Michaelis–Menten kinetics model, Y = Vmax*X/(Km + X) (Prism 6.0, Graphpad Software).

A further test relates to C57BL/6 mice. Kind of test: Survival study after 750 cGy TBI. It counts as in vivo, mouse. The method, then:
For survival studies, 10-week-old female C57BL/6 mice were irradiated with 750 cGy TBI, which is lethal for ~50% of C57BL/6 mice by day + 30 (LD50/30), using a Shepherd Cesium-137 irradiator. Twenty four hours post irradiation, mice were administered daily subcutaneous injections of 5 mg/kg DJ001 or DJ009, or vehicle in a volume of 100 μL for 10 days. DJ001 or DJ009 injections were prepared in PBS, 0.5% Tween 80, and 10% DMSO. Corresponding vehicle injections contained PBS, 10% DMSO, and 0.5% Tween 80. PB complete blood counts were measured using a Hemavet 950 instrument (Drew Scientific) at day + 10 post irradiation. For hematopoietic analysis, BM cells were collected at day + 10 post irradiation. To study whether DJ001 increased survival rates through activation of RAC signaling, the RAC inhibitor, EHT1864 (Selleckchem), was dissolved in PBS and administered intraperitoneally, 40 mg/kg every other day, to 750 cGy-irradiated mice until day + 10.

Setting [1] is: 750 cGy TBI, DJ001 daily day +1 to +10, through day +40.

As to `O=C(/C=C\Nc1cccc([N+](=O)[O-])c1)c1ccccc1` [DJ001, (Z)-3-((3-nitrophenyl)amino)-1-phenylprop-2-en-1-one], the “PTPσ inhibitory activity (in words)” value on PTPσ was “confirmed the inhibitory effect”; on PTPσ (listed as 5483071) it was “strong inhibitory activity”. In addition, the percent survival with C57BL/6 mice (setting [1]) worked out at 93%. Besides, the “survival, mice alive of total (Fig. 2f)” value in the test on C57BL/6 mice (setting [1]) was 27/29 and 27 of 29. Further, the “survival, mice alive of total (Fig. 3f)” value in the test with C57BL/6 mice (750 cGy, 10-day treatment, EHT1864 40 mg/kg i.p. every other day) is listed as 11/15. Besides, the “Figure 3f: survival event per mouse (1 = event, 0 = censored)” value with C57BL/6 mice (Days Post-irradiation 14) stood at 1; with C57BL/6 mice (Days Post-irradiation 17), 1; with C57BL/6 mice (Days Post-irradiation 18), 1; with C57BL/6 mice (Days Post-irradiation 20) it was 1; in the test with C57BL/6 mice (Days Post-irradiation 30), 0. The “survival source data, event code per mouse” value was found to be 1 in the test with C57BL/6 mice (Days Post-irradiation 18) and 0 in the test with C57BL/6 mice (Days Post-irradiation 40).

As for `O=C(/C=C\Nc1cc(F)cc(F)c1)c1ccccc1` [DJ009, (Z)-3-((3,5-difluorophenyl)amino)-1-phenylprop-2-en-1-one], the “PTPσ inhibitory activity (in words)” value at PTPσ is on record as “strongly inhibited PTPσ activity; also recorded: strong PTPσ inhibitory”. Besides, the “Supplementary Figure 5b: PTPσ enzymatic assay signal” value at PTPσ (inhibitor 0.0122 uM) was 0.21 and 0.203 (2×); at PTPσ (inhibitor 0.049 uM), 0.201 and 0.209 and 0.211; at PTPσ (inhibitor 0.09 uM) it was 0.199 and 0.194 and 0.195; on PTPσ (inhibitor 0.19 uM) it was 0.178 and 0.174 and 0.176; at PTPσ (inhibitor 0.39 uM), 0.161 and 0.165 and 0.164; on PTPσ (inhibitor 0.78 uM) it was 0.162 and 0.166 and 0.165. Also, the “Supplementary Figure 5b: PTPσ enzymatic assay signal” value is 0.16 and 0.163 and 0.158 at PTPσ (inhibitor 1.56 uM); 0.154 and 0.159 and 0.16 on PTPσ (inhibitor 3.125 uM); 0.157 and 0.162 and 0.156 at PTPσ (inhibitor 6.25 uM). In addition, in the test with C57BL/6 mice (750 cGy TBI, 5 mg/kg daily for 10 days), the “survival of irradiated C57BL/6 mice (in words)” value is on record as “significantly increased survival”. In the test with C57BL/6 mice (750 cGy, 5 mg/kg DJ009 daily for 10 d), the “survival, mice alive of total (Supplementary Fig. 5f)” value is given as 24/24. For the same compound, the “Supplementary Figure 5f: survival event per mouse (1 = event, 0 = censored)” value in the test with C57BL/6 mice (Days post-radiation 30) amounted to 0.
